According to patent US12371428B2 (Exelixis, Inc., priority 2019, dated 2025):

Key:
[1] = target: Human MET (residues 956-1390) (Homo sapiens (Human), UniProt P08581); assay: Human Met kinase assay, HTRF KinEase (Example D-2); type: biochemical; details: protocol of Example D-2 (other compounds); read-out: c-Met IC50
Summary of the method: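 HTRF KinEase assay on MET residues 956-1390 (0.1 ng/well) in buffer with 5 mM MgCl2, 1 mM DTT and 1 mM MnCl2, with biotinylated peptide substrate, ATP at Km, 10 compound concentrations and 3% DMSO final, run 40 min at room temperature. The […] signal was normalized to DMSO and to 1 μM reference compound, and IC50 came from a 4-parameter logistic fit.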

[2] = target: Human MER (residues 528-999) (Homo sapiens (Human), UniProt Q12866); assay: Human Mer kinase assay, HTRF KinEase (Example C-2); type: biochemical; details: protocol of Example C-2 (other compounds)
Summary of the method: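 HTRF KinEase TK assay with MER 528-999 (1 ng/well) in enzymatic buffer plus 5 mM MgCl2 and 1 mM DTT, biotinylated peptide substrate and ATP at Km (40 μM), 3% DMSO final, 60 min at room temperature. Stopped with EDTA detection mix (SA-XL665, TK antibody-Eu3+), read at 665/620 nm after 60 min; IC50 from 10-point 4-parameter fit, normalized to DMSO and 1 μM reference.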

[3] = target: Met (phospho-Met, HGF-stimulated PC-3 prostate cancer cells) (Homo sapiens (Human), UniProt P08581); assay: Met autophosphorylation ELISA in PC-3 cells (Example F); type: cell-based; details: cellular activity; Met autophosphorylation ELISA in PC-3 cells; read-out: c-Met IC50
Summary of the method: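 Sandwich ELISA for phospho-Met (panTyr) in PC-3 lysates. Cells starved 3 h serum-free, compound 1 h (8-pt curve, 0.3% DMSO), HGF 100 ng/mL 10 min. 100% = HGF + DMSO; 0% = HGF + reference inhibitor. IC50 by 4-parameter fit.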

[4] = target: KDR (phospho-KDR, VEGF165-stimulated HUVEC cells) (Homo sapiens (Human), UniProt P35968); assay: KDR autophosphorylation ELISA in HUVEC cells (Example G); type: cell-based; details: cellular activity; KDR autophosphorylation ELISA in HUVEC cells
Summary of the method: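 HUVECs were serum-starved 24 h, given compound as an 8-point dilution series (0.3% DMSO final) for 1 h, then stimulated with 100 ng/mL VEGF165 for 5 min. Lysate phospho-KDR was quantified by sandwich ELISA against a phospho-KDR standard, and IC50s came from a 4-parameter logistic fit.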

Sequence of Met (phospho-Met, HGF-stimulated PC-3 prostate cancer cells) (P08581 25-1390): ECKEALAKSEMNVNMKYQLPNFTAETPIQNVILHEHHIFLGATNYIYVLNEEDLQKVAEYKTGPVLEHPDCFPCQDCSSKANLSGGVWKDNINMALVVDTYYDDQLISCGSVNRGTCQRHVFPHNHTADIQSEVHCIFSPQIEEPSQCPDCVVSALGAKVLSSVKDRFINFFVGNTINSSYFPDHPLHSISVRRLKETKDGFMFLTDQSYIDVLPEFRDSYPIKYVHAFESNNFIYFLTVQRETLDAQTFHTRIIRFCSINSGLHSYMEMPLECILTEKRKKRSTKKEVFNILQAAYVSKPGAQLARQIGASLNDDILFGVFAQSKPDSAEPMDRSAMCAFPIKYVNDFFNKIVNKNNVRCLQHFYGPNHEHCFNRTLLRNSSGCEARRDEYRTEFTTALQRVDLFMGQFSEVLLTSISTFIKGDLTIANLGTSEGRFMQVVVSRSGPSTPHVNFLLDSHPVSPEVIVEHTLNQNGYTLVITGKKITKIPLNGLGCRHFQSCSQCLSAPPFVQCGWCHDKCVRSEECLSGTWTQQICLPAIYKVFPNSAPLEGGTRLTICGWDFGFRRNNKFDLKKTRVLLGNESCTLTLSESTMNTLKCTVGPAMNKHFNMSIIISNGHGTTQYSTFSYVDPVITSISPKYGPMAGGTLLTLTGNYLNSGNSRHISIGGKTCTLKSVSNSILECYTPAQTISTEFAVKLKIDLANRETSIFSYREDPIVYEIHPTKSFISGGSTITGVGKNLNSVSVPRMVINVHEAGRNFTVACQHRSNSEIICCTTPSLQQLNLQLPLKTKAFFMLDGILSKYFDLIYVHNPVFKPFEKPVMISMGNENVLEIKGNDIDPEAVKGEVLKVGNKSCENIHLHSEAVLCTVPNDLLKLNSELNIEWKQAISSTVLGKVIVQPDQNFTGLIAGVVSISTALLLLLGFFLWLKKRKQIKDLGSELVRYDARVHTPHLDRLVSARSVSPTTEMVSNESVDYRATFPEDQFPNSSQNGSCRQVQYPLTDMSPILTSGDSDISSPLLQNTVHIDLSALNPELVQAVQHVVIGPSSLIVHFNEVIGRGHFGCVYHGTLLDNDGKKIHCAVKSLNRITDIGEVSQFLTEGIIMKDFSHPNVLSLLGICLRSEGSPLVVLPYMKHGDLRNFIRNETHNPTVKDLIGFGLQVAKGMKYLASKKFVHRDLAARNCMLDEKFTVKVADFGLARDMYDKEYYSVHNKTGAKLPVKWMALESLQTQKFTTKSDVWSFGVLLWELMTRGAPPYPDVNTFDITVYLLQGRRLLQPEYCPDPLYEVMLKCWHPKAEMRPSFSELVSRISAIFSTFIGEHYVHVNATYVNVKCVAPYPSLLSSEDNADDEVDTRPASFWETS
Sequence of Human MET (residues 956-1390) (P08581 956-1390): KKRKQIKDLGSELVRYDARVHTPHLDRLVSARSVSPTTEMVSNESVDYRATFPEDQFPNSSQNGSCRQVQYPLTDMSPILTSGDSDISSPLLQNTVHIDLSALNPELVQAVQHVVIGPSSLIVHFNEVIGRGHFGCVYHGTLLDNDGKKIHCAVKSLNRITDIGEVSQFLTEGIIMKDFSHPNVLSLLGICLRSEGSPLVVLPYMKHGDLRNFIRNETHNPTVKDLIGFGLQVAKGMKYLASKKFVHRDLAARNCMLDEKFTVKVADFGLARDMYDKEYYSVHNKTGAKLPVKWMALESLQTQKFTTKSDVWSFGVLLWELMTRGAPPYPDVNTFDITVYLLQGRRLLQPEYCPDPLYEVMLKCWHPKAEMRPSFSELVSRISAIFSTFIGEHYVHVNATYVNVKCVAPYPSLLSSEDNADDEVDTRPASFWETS
Sequence of KDR (phospho-KDR, VEGF165-stimulated HUVEC cells) (P35968 20-1356): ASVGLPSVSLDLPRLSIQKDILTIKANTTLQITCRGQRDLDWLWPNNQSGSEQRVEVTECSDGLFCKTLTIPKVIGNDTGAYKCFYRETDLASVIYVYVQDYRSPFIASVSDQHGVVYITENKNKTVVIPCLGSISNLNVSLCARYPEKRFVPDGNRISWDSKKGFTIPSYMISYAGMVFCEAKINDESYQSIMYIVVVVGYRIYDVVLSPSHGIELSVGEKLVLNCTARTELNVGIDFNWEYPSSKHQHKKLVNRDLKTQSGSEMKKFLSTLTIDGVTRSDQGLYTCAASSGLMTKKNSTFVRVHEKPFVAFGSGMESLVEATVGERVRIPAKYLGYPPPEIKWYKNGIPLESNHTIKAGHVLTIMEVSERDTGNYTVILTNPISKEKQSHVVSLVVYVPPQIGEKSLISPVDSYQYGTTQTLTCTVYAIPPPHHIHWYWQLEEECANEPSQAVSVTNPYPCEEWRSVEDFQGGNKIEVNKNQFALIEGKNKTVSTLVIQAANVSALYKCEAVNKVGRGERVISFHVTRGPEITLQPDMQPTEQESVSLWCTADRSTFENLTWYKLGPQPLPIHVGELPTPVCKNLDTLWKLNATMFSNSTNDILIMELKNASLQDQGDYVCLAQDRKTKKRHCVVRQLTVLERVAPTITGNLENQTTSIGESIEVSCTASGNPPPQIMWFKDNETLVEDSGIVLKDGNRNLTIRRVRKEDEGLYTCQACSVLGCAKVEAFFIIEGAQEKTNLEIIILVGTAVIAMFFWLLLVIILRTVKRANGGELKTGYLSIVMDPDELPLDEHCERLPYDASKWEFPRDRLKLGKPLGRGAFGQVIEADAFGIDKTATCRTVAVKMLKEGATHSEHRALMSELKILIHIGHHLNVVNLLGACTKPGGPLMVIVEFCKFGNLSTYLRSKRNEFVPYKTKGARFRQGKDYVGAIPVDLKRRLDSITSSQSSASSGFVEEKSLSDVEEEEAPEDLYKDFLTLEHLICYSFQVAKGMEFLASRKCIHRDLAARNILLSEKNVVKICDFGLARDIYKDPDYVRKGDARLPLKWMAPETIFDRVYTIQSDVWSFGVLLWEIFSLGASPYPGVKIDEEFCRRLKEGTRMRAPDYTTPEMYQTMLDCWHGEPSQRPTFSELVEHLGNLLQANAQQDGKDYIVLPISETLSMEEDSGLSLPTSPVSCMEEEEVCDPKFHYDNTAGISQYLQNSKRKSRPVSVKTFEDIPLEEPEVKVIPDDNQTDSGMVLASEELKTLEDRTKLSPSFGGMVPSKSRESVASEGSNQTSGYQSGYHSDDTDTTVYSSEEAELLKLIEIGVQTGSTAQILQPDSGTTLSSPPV
Sequence of Human MER (residues 528-999) (Q12866 528-999): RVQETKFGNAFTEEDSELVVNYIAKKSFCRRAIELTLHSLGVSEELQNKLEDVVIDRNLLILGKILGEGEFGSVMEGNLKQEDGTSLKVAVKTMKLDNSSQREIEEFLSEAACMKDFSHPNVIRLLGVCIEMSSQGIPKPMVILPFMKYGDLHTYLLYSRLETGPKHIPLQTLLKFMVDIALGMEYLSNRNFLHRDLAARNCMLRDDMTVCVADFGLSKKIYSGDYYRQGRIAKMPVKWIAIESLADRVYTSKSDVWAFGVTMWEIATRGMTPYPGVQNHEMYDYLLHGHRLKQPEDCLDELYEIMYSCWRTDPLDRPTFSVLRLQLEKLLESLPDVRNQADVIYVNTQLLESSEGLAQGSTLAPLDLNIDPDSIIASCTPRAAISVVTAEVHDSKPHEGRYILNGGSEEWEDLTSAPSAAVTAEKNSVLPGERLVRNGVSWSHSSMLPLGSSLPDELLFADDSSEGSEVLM

Row | SMILES | IC50 [1] [nM] | IC50 [2] [nM] | IC50 [3] [nM] | IC50 [4] [nM]
1 | Cc1nc(C)n(-c2ccc(F)cc2)c(=O)c1C(=O)Nc1ccc(Oc2ccnc3cc(OCc4ccccc4)cnc23)c(F)c1 [Compound 278, 1-(4-Fluorophenyl)-N-[3-fluoro-4-[(7-phenylmethoxy-1,5-naphthyridin-4-yl)oxy]phenyl]-2,4-dimethyl-6-oxopyrimidine-5-carboxamide] | < 100 | < 100 | < 100 | < 100
2 | COc1cc2nccc(Oc3cc(F)c(NC(=O)c4cn(C)c(C)c(-c5ccc(F)cc5)c4=O)cc3F)c2nc1OC [Compound 391, N-[4-[(6,7-dimethoxy-1,5-naphthyridin-4-yl)oxy]-2,5-difluorophenyl]-5-(4-fluorophenyl)-1,6-dimethyl-4-oxopyridine-3-carboxamide] | < 100 | < 100 | < 100 | > 300
3 | COc1ccc2nccc(Oc3ccc(NC(=O)c4ncc(C)n(-c5ccc(F)cc5C)c4=O)cc3F)c2n1 [Compound 394, N-[3-fluoro-4-[(6-methoxy-1,5-naphthyridin-4-yl)oxy]phenyl]-4-(4-fluoro-2-methylphenyl)-5-methyl-3-oxopyrazine-2-carboxamide] | < 100 | < 100 | < 100 | > 300
4 | COc1ccc2nccc(Oc3ccc(NC(=O)c4ccc(C)n(-c5ccc(F)cc5)c4=O)cc3F)c2c1 [Compound 346, N-[3-fluoro-4-(6-methoxyquinolin-4-yl)oxyphenyl]-1-(4-fluorophenyl)-6-methyl-2-oxopyridine-3-carboxamide] | < 100 | < 100 | < 100 | < 100
5 | CCn1cc(C(=O)Nc2ccc(Oc3ccnc4cc(OC)cnc34)c(F)c2)c(=O)c(-c2ccc(F)cc2)c1CO [Compound 273, 1-Ethyl-N-[3-fluoro-4-[(7-methoxy-1,5-naphthyridin-4-yl)oxy]phenyl]-5-(4-fluorophenyl)-6-(hydroxymethyl)-4-oxopyridine-3-carboxamide] | < 100 | < 100 | < 100 | > 300
6 | C=C(C)c1cc(C(=O)Nc2ccc(Oc3ccnc4cc(OC)c(OC)nc34)c(F)c2)c(=O)n(-c2ccc(F)cc2)c1C [Compound 367, N-[4-[(6,7-dimethoxy-1,5-naphthyridin-4-yl)oxy]-3-fluorophenyl]-1-(4-fluorophenyl)-6-methyl-2-oxo-5-prop-1-en-2-ylpyridine-3-carboxamide] | 100 to 300 | < 100 | < 100 | 100 to 300
7 | COc1cc2nccc(Oc3ccc(NC(=O)c4nccn(-c5ccc(F)cc5)c4=O)cc3)c2nc1OC [Compound 384, N-[4-[(6,7-dimethoxy-1,5-naphthyridin-4-yl)oxy]phenyl]-4-(4-fluorophenyl)-3-oxopyrazine-2-carboxamide] | < 100 | < 100 | < 100 | < 100
8 | COc1cc2nccc(Oc3ncc(NC(=O)c4cn(C5CN(C)C5)cc(-c5ccc(F)cc5)c4=O)cc3F)c2cc1OC [Compound 400, N-[6-(6,7-dimethoxyquinolin-4-yl)oxy-5-fluoropyridin-3-yl]-5-(4-fluorophenyl)-1-(1-methylazetidin-3-yl)-4-oxopyridine-3-carboxamide] | < 100 | < 100 | < 100 | > 300
9 | CCn1cc(C(=O)Nc2ccc(Oc3ccnc4cc(OC)cnc34)c(F)c2)c(=O)c(-c2ccc(F)cc2C)c1CO [Compound 285, 1-Ethyl-N-[3-fluoro-4-[(7-methoxy-1,5-naphthyridin-4-yl)oxy]phenyl]-5-(4-fluoro-2-methylphenyl)-6-(hydroxymethyl)-4-oxopyridine-3-carboxamide] | < 100 | < 100 | < 100 | > 300
10 | COc1ccc2nccc(Oc3ccc(NC(=O)c4cnc(C)c(-c5ccc(F)cc5)c4O)cc3F)c2c1 [Compound 347, N-[3-fluoro-4-(6-methoxyquinolin-4-yl)oxyphenyl]-5-(4-fluorophenyl)-4-hydroxy-6-methylpyridine-3-carboxamide] | < 100 | < 100 | < 100 | < 100
11 | COc1cc2nccc(Oc3ccc(NC(=O)c4nccn(-c5ccc(F)cc5)c4=O)cc3F)c2nc1OC [Compound 379, N-[4-[(6,7-dimethoxy-1,5-naphthyridin-4-yl)oxy]-3-fluorophenyl]-4-(4-fluorophenyl)-3-oxopyrazine-2-carboxamide] | < 100 | < 100 | < 100 | < 100
12 | COc1cc2nccc(Oc3ccc(NC(=O)c4ncc(C)n(-c5ccc(F)cc5C)c4=O)cc3F)c2nc1OC [Compound 393, N-[4-[(6,7-dimethoxy-1,5-naphthyridin-4-yl)oxy]-3-fluorophenyl]-4-(4-fluoro-2-methylphenyl)-5-methyl-3-oxopyrazine-2-carboxamide] | < 100 | < 100 | < 100 | < 100
13 | COc1ccc2nccc(Oc3ccc(NC(=O)c4ncc(C)n(-c5ccc(F)cc5)c4=O)cc3F)c2n1 [Compound 264, N-[3-Fluoro-4-[(6-methoxy-1,5-naphthyridin-4-yl)oxy]phenyl]-4-(4-fluorophenyl)-5-methyl-3-oxopyrazine-2-carboxamide] | < 100 | < 100 | < 100 | > 300
14 | COc1cnc2c(Oc3ccc(NC(=O)c4c(C)cc(C)n(-c5ccc(F)cc5)c4=O)cc3F)ccnc2c1 [Compound 280, N-[3-Fluoro-4-[(7-methoxy-1,5-naphthyridin-4-yl)oxy]phenyl]-1-(4-fluorophenyl)-4,6-dimethyl-2-oxopyridine-3-carboxamide] | < 100 | < 100 | < 100 | < 100
15 | COc1cc2nccc(Oc3ncc(NC(=O)c4cn(C5CC5)cc(-c5ccc(F)cc5)c4=O)cc3F)c2cc1OC [Compound 399, 1-cyclopropyl-N-[6-(6,7-dimethoxyquinolin-4-yl)oxy-5-fluoropyridin-3-yl]-5-(4-fluorophenyl)-4-oxopyridine-3-carboxamide] | < 100 | < 100 | < 100 | > 300
16 | COc1cc2nccc(Oc3ccc(NC(=O)c4nn(C(C)C)c(C)c(-c5ccc(F)cc5)c4=O)cc3F)c2nc1OC [Compound 364, N-[4-[(6,7-dimethoxy-1,5-naphthyridin-4-yl)oxy]-3-fluorophenyl]-5-(4-fluorophenyl)-6-methyl-4-oxo-1-propan-2-ylpyridazine-3-carboxamide] | < 100 | < 100 | < 100 | < 100
17 | COCc1ncc(C(=O)Nc2ccc(Oc3ccnc4cc(OC)c(OC)nc34)c(F)c2)c(O)c1-c1ccc(F)cc1 [Compound 301, N-[4-[(6,7-Dimethoxy-1,5-naphthyridin-4-yl)oxy]-3-fluorophenyl]-5-(4-fluorophenyl)-4-hydroxy-6-(methoxymethyl)pyridine-3-carboxamide] | < 100 | < 100 | < 100 | < 100
18 | CCOc1c(C(=O)Nc2ccc(Oc3ccnc4cc(OC)c(OC)nc34)c(F)c2)c(=O)c(-c2ccc(F)cc2)c(C)n1C [Compound 369, N-[4-[(6,7-dimethoxy-1,5-naphthyridin-4-yl)oxy]-3-fluorophenyl]-2-ethoxy-5-(4-fluorophenyl)-1,6-dimethyl-4-oxopyridine-3-carboxamide] | > 300 | < 100 | < 100 | < 100
19 | COc1ccc2nccc(Oc3ccc(NC(=O)c4c(C)cc(C)n(-c5ccc(F)cc5)c4=O)cc3)c2n1 [Compound 290, 1-(4-Fluorophenyl)-N-[4-[(6-methoxy-1,5-naphthyridin-4-yl)oxy]phenyl]-4,6-dimethyl-2-oxopyridine-3-carboxamide] | 100 to 300 | < 100 | < 100 | < 100
20 | COc1cnc2c(Oc3ccc(NC(=O)c4ncc(C)n(-c5ccc(F)cc5)c4=O)cc3)ccnc2c1 [Compound 263, 4-(4-Fluorophenyl)-N-[4-[(7-methoxy-1,5-naphthyridin-4-yl)oxy]phenyl]-5-methyl-3-oxopyrazine-2-carboxamide] | < 100 | < 100 | < 100 | > 300
21 | COCCOc1ccc2nccc(Oc3ccc(NC(=O)c4ccc(C)n(-c5ccc(F)cc5)c4=O)cc3F)c2n1 [Compound 350, N-[3-fluoro-4-[[6-(2-methoxyethoxy)-1,5-naphthyridin-4-yl]oxy]phenyl]-1-(4-fluorophenyl)-6-methyl-2-oxopyridine-3-carboxamide] | < 100 | < 100 | < 100 | < 100
